# From patent publication US20210088529A1, “USE OF QUINALDINE RED AND DERIVATIVES THEREOF IN PREPARATION OF KIT FOR DETECTING AMYLOID FIBRILS” (Jilin University, priority 2019, published 2021)
# Experiments:
# lysozyme amyloid fibrils = lysozyme amyloid fibrils (Gallus gallus, UniProt P00698); assay: Monitoring the kinetic process of lysozyme fibrillation by fluorescence; details: lysozyme 0.1 mM in glycine/NaCl pH 2.0, samples at different time points; FIG. 3D
# Method: (§1) The kinetic process of the formation of the lysozyme amyloid fibrils was monitored with QR. […] Three duplicate samples were made for each group of samples, and all of the above samples were determined on a fluorescence spectrometer for fluorescence intensities.
# lysozyme fibrils = lysozyme fibrils (Gallus gallus, UniProt P00698); assay: Fluorescence identification of lysozyme fibrils; type: binding; details: lysozyme 0.1 mM fibrillated at 65° C. for 180 min; FIG. 3C
# Chain of lysozyme fibrils (P00698 19-147): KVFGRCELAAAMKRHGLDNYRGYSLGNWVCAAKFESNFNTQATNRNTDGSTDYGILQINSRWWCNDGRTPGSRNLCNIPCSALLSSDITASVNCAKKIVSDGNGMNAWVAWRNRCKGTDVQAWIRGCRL
# Method: Formulation of a glycine/NaCl buffer solution: the pH value of the glycine/NaCl aqueous solution was adjusted to 2.0 with HCl, where the concentration of sodium chloride was 80 mM and the concentration of glycine was 70 mM.
# The lysozyme (0.1 mM) was dissolved in a glycine/NaCl buffer solution for fibrillation at 65° C. under magnetic stirring at a rotation rate of 220 rmp for 180 min. The fluorescence intensities of QR, QR-lysozyme and QR-lysozyme fibrils were determined respectively.
# bovine insulin fibrils [1] = target: T1, bovine insulin fibrils (Bos taurus, UniProt P01317); assay: QR replacement of a conventional probe bound to bovine insulin fibrils; type: binding; details: ThS or NR bound first, then QR added, FIGS. 5B-5D
# T1 sequence (P01317 25-54 limits assumed): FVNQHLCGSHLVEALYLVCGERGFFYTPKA
# T1 sequence (P01317 85-105 limits assumed): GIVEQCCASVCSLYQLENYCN
# Method: (§2) 0.05 ml of each of QR, ThT, ThS and NR solutions was taken, then added with 0.05 ml of the bovine insulin fibrils, diluted with 0.9 ml of PBS to 1 ml, and then determined for the fluorescence intensity.
# Since the binding constant of binding between QR and the bovine insulin is the largest, ThT, ThS, and NR were first used to bind to the bovine insulin fibrils for fluorescence determination, then QR was added for a replacement reaction.
# bovine insulin [2] = target: T2, bovine insulin (Bos taurus, UniProt P01317); assay: Raman (SERS) study of the manner of binding between QR and bovine insulin; details: SERS on silver sol, 532 nm, QR 0.01 mM, bovine insulin 0.01 mM; FIG. 2
# T2 sequence (P01317 25-54 limits assumed): as the sequence (P01317 25-54 limits assumed) above
# Method: The manner of binding between QR and the bovine insulin was studied by using a Raman spectrometer with an excitation line of a laser model of 532 nm. First, a silver sol was synthesized as a SERS (surface-enhancement raman scattering) substrate. The synthesized silver nanoparticles were respectively added with the bovine insulin (0.01 mM), QR (0.01 mM) and a mixed sample of them, for detection.
# [3] = target: bovine insulin amyloid fibrils (Bos taurus, UniProt P01317); assay: Monitoring the kinetic process of bovine insulin fibrillation by fluorescence; details: 0.5 mM insulin in NaCl/HCl pH 1.6, samples at different time points, QR 1 mM 0.05 mL; FIG. 3B
# Chain of bovine insulin amyloid fibrils (P01317 25-54 limits assumed): as above
# Method: as §1, with “As the mechanism of amyloid fibril-related disease was still being explored, and the kinetic process of the amyloid fibrils might provide relevant information for the mechanism, the” for “The”, “bovine insulin” for “lysozyme”
# insulin fibril = insulin fibril (Bos taurus, UniProt P01317); assay: Photobleaching experiment under ultraviolet light (365 nm); type: physicochemical, bovine; details: UV 365 nm, insulin fibril 0.025 mM, dyes 0.05 mm, measured every 30 minutes; FIG. 6
# Chain of insulin fibril (P01317 25-54 limits assumed): as above
# Method: A photobleaching experiment was carried out under ultraviolet light (365 nm). An insulin fibril (0.025 mM) was mixed with QR, ThT, ThS and NR respectively, with the concentrations of all dyes being 0.05 mm. The mixtures were placed under an ultraviolet lamp (365 nm) and measured for fluorescence every 30 minutes.
# bovine insulin [4] = target: T2, bovine insulin; assay: Isothermal titration calorimetry (ITC) of dyes with bovine insulin; type: binding; details: 25° C., insulin 0.25 mM, dyes 0.01 mM, FIG. 4
# Method: Isothermal titration calorimetry (ITC): the bovine insulin was diluted to a final concentration of 0.25 mM, the QR, ThT, ThS, NR were each diluted to a final concentration of 0.01 mM, and then the aforementioned dyes were titrated with the bovine insulin at 25° C., where the dye was added dropwise into a sample chamber containing a solution of the bovine insulin through an automatically-controlled rotary syringe. At the same time, a blank test was carried out, where dye solutions with equal concentration and equal volume were added dropwise into ultra-pure water, and dilution heat was deducted to obtain a binding constant.
# bovine insulin fibrils [5] = target: T1, bovine insulin fibrils; assay: Fluorescence response (identification) of bovine insulin fibrils by the dye; type: binding; details: for identification of bovine insulin fibril (fluorescence intensity, dye comparison): 0.05 ml dye + 0.05 ml fibrils, diluted with PBS to 1 ml; for identification effect on bovine insulin fibrils (fluorescence intensity): dye 0.2 mM, dye-insulin 0.025 mM, dye-insulin fibril 0.025 mM, FIG. 3A / FIG. 7
# Method: 2) The bovine insulin fibrils were diluted with PBS to 0 μm, 1 μm, 3 μm, 5 μm, 10 μm, 20 μm and 30 μm respectively. Then the diluted samples were each added with 0.05 mL of […] (1 mM) solution, and tested in a fluorescence spectrometer for the fluorescence intensity (λex=440 nm). […] The results are shown in FIG. 1, where FIG. 1-A was the detection limit of QR on the bovine insulin fibrils; and FIG. 1-B was a linear interval for QR identification of the bovine insulin fibrils.
# QR (0.2 mM), QR-insulin (0.025 mM) and QR-insulin fibril (0.025 mM) were determined for fluorescence intensities respectively.
# as §2
# The fluorescence intensities of 4-(4-dimethylaminostyryl)quinoline (0.2 mM), 4-(4-dimethylaminostyryl)quinoline-insulin (0.025 mM) and 4-(4-dimethylaminostyryl)quinoline-insulin fibrils (0.025 mM) were determined respectively.
# Chain of lysozyme amyloid fibrils (P00698 19-147): as the sequence (P00698 19-147) above
Molecule,fluorescence intensity of dye + insulin fibrils with increase of the illumination time (photostability) (insulin fibril),identification effect on bovine insulin fibrils (fluorescence intensity) (bovine insulin fibrils [5]),"identification of bovine insulin fibril (fluorescence intensity, dye comparison) (bovine insulin fibrils [5]; FIG. 5-A)",also measured
"Thioflavin S [ThS, reference compound]",decreased significantly,–,could well identify the bovine insulin fibril,–
CN(C)c1ccc(C=Cc2ccnc3ccccc23)cc1 [4-(4-dimethylaminostyryl)quinoline],–,good identification effect,–,–

# More lines, main results first:
fluorescence intensity of dye + insulin fibrils with increase of the illumination time (photostability) (insulin fibril),identification effect on bovine insulin fibrils (fluorescence intensity) (bovine insulin fibrils [5]),Molecule,"identification of bovine insulin fibril (fluorescence intensity, dye comparison) (bovine insulin fibrils [5]; FIG. 5-A)",also measured
remained basically unchanged,good identification effect,"CC[n+]1c(/C=C/c2ccc(N(C)C)cc2)ccc2ccccc21 [QR, quinaldine red]",could well identify the bovine insulin fibril,"detection of the dynamic process of lysozyme fibrillation (lysozyme amyloid fibrils): could well detect the dynamic process of lysozyme fibrillation; identification effect on lysozyme fibrils (fluorescence intensity) (lysozyme fibrils): good identification effect; replacement of ThT, ThS, NR bound to bovine insulin fibrils (bovine insulin fibrils [1]): replacement effect was obvious; Raman signal between 900-1100 cm-1 (bovine insulin [2]): the signal for QR-insulin was disappeared; detection of the dynamic process of bovine insulin fibrillation [3]: could well detect the dynamic process of bovine insulin fibrillation; binding constant of binding with the bovine insulin (comparison among dyes) (bovine insulin [4]): largest binding constant; linear range of fluorescence response to bovine insulin fibrils (bovine insulin fibrils [5]; fibrils diluted with PBS to 0-30 μm, fluorescence spectrometer, FIG. 1): 0-30 μm; fluorescence intensity compared with the other dyes (bovine insulin fibrils [5]; red light region, FIG. 5-A): certain advantages of the fluorescence intensity in the red light region"
decreased significantly,–,"Cc1ccc2c(c1)sc(-c1ccc(N(C)C)cc1)[n+]2C.[Cl-] [ThT, Thioflavin T, reference compound]",could well identify the bovine insulin fibril,–
decreased significantly,–,"CCN(CC)c1ccc2nc3c4ccccc4c(=O)cc-3oc2c1 [NR, nile red, reference compound]",could well identify the bovine insulin fibril,–
